Measurements taken from PubChem BioAssay (NCI).
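Following 48 hours of exposure in 96-well plates, responses at five concentrations were used to interpolate endpoints linearly. The concentration for 50% growth inhibition is given as GI50. TGI marks complete inhibition of growth.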

What was measured:
Assay in all cases: growth of human tumour cells (NCI), 48 h
[1] = tested on: MDA-MB-231 breast
[2] = tested on: HOP-62 NSCLC
[3] = tested on: HL-60(TB) leukemia
[4] = tested on: LOX IMVI melanoma
[5] = tested on: HS 578T breast
[6] = tested on: UACC-257 melanoma
[7] = tested on: NCI-H226 lung
[8] = tested on: SK-MEL-5 melanoma
[9] = tested on: RXF 393 renal
[10] = tested on: TK-10 renal

Compound | GI50 [1] | TGI [1] | GI50 [2] | TGI [2] | GI50 [3] | TGI [3] | GI50 [4] | TGI [4] | GI50 [5] | TGI [5] | GI50 [6] | TGI [6] | GI50 [7] | TGI [7] | GI50 [8] | TGI [8] | GI50 [9] | TGI [9] | GI50 [10] | TGI [10]
CCCc1cc2c(=O)c(C(=O)OC)c[nH]c2cc1N(CC)CC | 30.5 µM | 84.5 µM | 20.4 µM | 37.9 µM | 62.5 µM | > 100 µM | 25.8 µM | 77.9 µM | 19.6 µM | 48.1 µM | > 100 µM | > 100 µM | 34.6 µM | > 100 µM | 31.9 µM | > 100 µM | 31.4 µM | 85 µM | 69.1 µM | > 100 µM
Cn1c(/C=C(\C#N)c2ccccc2)nc2c(N3CCOCC3)nc(Cl)nc21 | 1.31 µM | 2.92 µM | 1.58 µM | 3.51 µM | 0.462 µM | 2.61 µM | 0.324 µM | 1.25 µM | 1.69 µM | 5.64 µM | 1.43 µM | 3.03 µM | 1.52 µM | 3.4 µM | 1.64 µM | 3.01 µM | 0.89 µM | 2.14 µM | 1.82 µM | 3.24 µM
COc1cc(C)c(Cl)cc1C1=NN(c2ccc(S(N)(=O)=O)cc2)C(/C=C/c2ccccc2)C1 (centres undefined) | 3.3 µM | 10.8 µM | 3.1 µM | 11.8 µM | 3.6 µM | 16 µM | 1.67 µM | 3.21 µM | 2.89 µM | 9.83 µM | 3.58 µM | 20.5 µM | 1.53 µM | 3.46 µM | 1.61 µM | 3 µM | 1.71 µM | 3.5 µM | 3.25 µM | 11.5 µM
Cc1cc(S(N)(=O)=O)c(S/C(CC(C)C)=N\Nc2ccc([N+](=O)[O-])cc2)cc1Cl | 2.77 µM | 9.52 µM | 13.5 µM | 26.4 µM | 7.07 µM | > 100 µM | 5.81 µM | 29.2 µM | 11.9 µM | 30.1 µM | 16.4 µM | 33.8 µM | 2.82 µM | 7.77 µM | 11 µM | 23.2 µM | 4.13 µM | 19 µM | 2.93 µM | 8.33 µM
COC1CC2CCC(C)C(O)(O2)C(=O)C(=O)N2CCCCC2C(=O)OC(C(C)CC2CCC(O)C(OC)C2)CC(=O)C(C)C=C(C)C(O)C(OC)C(=O)C(C)CC(C)/C=C/C=C/C=C1C (centres undefined) | 4.32 µM | 12.9 µM | 0.159 µM | 9.96 µM | 10.2 µM | 23.6 µM | 0.015 µM | 13.1 µM | 0.00742 µM | 24.4 µM | 4.46 µM | 12.5 µM | < 0.005 µM | 9.71 µM | – | 9.24 µM | < 0.005 µM | 7.48 µM | 5.62 µM | 19.7 µM
C=CC(=O)N1CCN(c2nc(=O)n(-c3c(C)ccnc3C(C)C)c3nc(-c4c(O)cccc4F)c(F)cc23)[C@@H](C)C1 | 25.4 µM | 85.2 µM | < 0.0291 µM | > 66.5 µM | 20.5 µM | 53.8 µM | 16.9 µM | 38.1 µM | 45.7 µM | > 100 µM | > 56.2 µM | > 100 µM | 25.4 µM | > 100 µM | 27.8 µM | > 59.1 µM | 17.7 µM | 59.2 µM | 23.8 µM | > 90.9 µM
O=C(CNc1ccc2c(c1)C(=O)c1ccccc1C2=O)Nc1ccc2c(c1)C(=O)c1ccccc1C2=O | 1.31 µM | 4.71 µM | 1.85 µM | 3.59 µM | 1.57 µM | 4.35 µM | 0.142 µM | 0.317 µM | 2.29 µM | 13.2 µM | 1.49 µM | 2.99 µM | 0.568 µM | 1.44 µM | 0.25 µM | 0.669 µM | 0.687 µM | 2.04 µM | 1.7 µM | 3.17 µM
COC(=O)C1=C(C(=O)ON)C2C=CC1(C(Cc1ccccc1)Nc1ccccc1)O2 (centres undefined) | 1.87 µM | 3.59 µM | 14.4 µM | 27.9 µM | 2.89 µM | 10.1 µM | 1.74 µM | 3.24 µM | 25.3 µM | > 100 µM | 1.81 µM | 3.34 µM | 12.8 µM | 25.6 µM | 14.1 µM | 27.2 µM | 1.78 µM | 3.2 µM | 1.71 µM | 3.08 µM
CC(C)(O)CS(=O)(=O)Nc1ccc2c(c1)CCN(C(=O)COc1cccnc1)C2 | > 100 µM | > 100 µM | 99.4 µM | > 100 µM | > 100 µM | > 100 µM | > 100 µM | > 100 µM | > 100 µM | > 100 µM | > 100 µM | > 100 µM | > 100 µM | > 100 µM | > 100 µM | > 100 µM | > 100 µM | > 100 µM | > 100 µM | > 100 µM
C=C(CN1C(=O)[C@H]2CCCN2C(=O)c2ccccc21)c1ccc(C(=O)O)cc1 | > 100 µM | > 100 µM | > 100 µM | > 100 µM | > 100 µM | > 100 µM | > 100 µM | > 100 µM | > 100 µM | > 100 µM | > 100 µM | > 100 µM | > 100 µM | > 100 µM | > 100 µM | > 100 µM | > 100 µM | > 100 µM | > 100 µM | > 100 µM
O=c1ccn(C2OC(CO/N=C/c3ccc(O)c(O)c3O)C(O)C2O)c(=O)[nH]1 (centres undefined) | 30 µM | > 100 µM | 67.6 µM | > 100 µM | 26.9 µM | 68.1 µM | 16.1 µM | 32.2 µM | 22.8 µM | 59.7 µM | 33.5 µM | > 100 µM | > 100 µM | > 100 µM | 19.4 µM | 33.5 µM | 23 µM | 73.9 µM | > 100 µM | > 100 µM
O=C1c2cc3c(cc2-c2c1c1ccc(Cl)cc1c(=O)n2CCCNCCO)OCO3 | 1.73 µM | 3.49 µM | 0.0714 µM | 1.73 µM | 0.0367 µM | 1.08 µM | 0.0467 µM | 1.3 µM | 1.73 µM | 4 µM | 0.666 µM | 2.43 µM | 0.052 µM | 1.55 µM | 0.387 µM | 1.58 µM | 0.926 µM | 2.59 µM | 1.5 µM | 2.94 µM
Cc1ccc(-n2c3c(c4c(CN(C)C)c(O)ccc42)CCc2ccccc2C3=O)cc1 | 14.9 µM | 31 µM | 17.8 µM | 40.9 µM | 9.49 µM | 24.5 µM | 15.8 µM | 29.5 µM | 21.3 µM | 57.7 µM | 17.7 µM | 34 µM | 18.1 µM | 37 µM | 14.9 µM | 28.9 µM | 13.6 µM | 28 µM | 18.9 µM | 35.6 µM
c1ccc2[nH]c(-c3ccc(NN=Nc4ccncc4)cc3)nc2c1 | > 100 µM | > 100 µM | > 100 µM | > 100 µM | > 100 µM | > 100 µM | 6.59 µM | 38.4 µM | > 100 µM | > 100 µM | > 100 µM | > 100 µM | > 100 µM | > 100 µM | 24.1 µM | > 100 µM | 58.1 µM | > 100 µM | 52.5 µM | > 100 µM
COc1ccc(/C=C/C(=O)c2ccc(SC)cc2)cc1OC | 9.05 µM | 33.7 µM | 18.8 µM | 42.2 µM | 25.7 µM | 79.6 µM | 4.12 µM | 15.5 µM | 16.6 µM | 99.3 µM | 17 µM | 30.9 µM | 8.42 µM | 45.1 µM | 14.5 µM | 31.7 µM | 12.7 µM | 29.4 µM | 14.7 µM | 32.8 µM
